Values quoted from earlier work, collected in patent publication US9186343B2, “Nanoveso™: treatment, biomarkers and diagnostic tests for liver diseases and comorbid diseases” (Nanoveson, LLC, priority 2007, dated 2015).
Values joined by “and” are separate entries in the source; they are usually repeats but may differ in a detail not shown here. Identical values can stand only once.

How the values were obtained:
chromaffin granules = details: most effective fusogen of 23 compounds
[1] = test system: human prostate cancer cells; details: in vitro at micromolar concentrations
[2] = presence of annexin

| Molecule | minimum concentration as fusogen (chromaffin granules) | human prostate cancer cell growth [1] | increase of the aggregation rate [2] |
| --- | --- | --- | --- |
| CCCCC/C=C\C/C=C\C/C=C\C/C=C\CCCC(=O)O [AA, Arachidonic Acid (n-6 20:4)] | 2 ug/ml and 6.6 uM | effective stimulator |  |
| annexin: synexin (a.k.a. annexin VII), a Ca2+ binding protein (protein, UniProt P20073 1-488, looked up) Annexin A7: MSYPGYPPTGYPPFPGYPPAGQESSFPPSGQYPYPSGFPPMGGGAYPQVPSSGYPGAGGYPAPGGYPAPGGYPGAPQPGGAPSYPGVPPGQGFGVPPGGAGFSGYPQPPSQSYGGGPAQVPLPGGFPGGQMPSQYPGGQPTYPSQINTDSFSSYPVFSPVSLDYSSEPATVTQVTQGTIRPAANFDAIRDAEILRKAMKGFGTDEQAIVDVVANRSNDQRQKIKAAFKTSYGKDLIKDLKSELSGNMEELILALFMPPTYYDAWSLRKAMQGAGTQERVLIEILCTRTNQEIREIVRCYQSEFGRDLEKDIRSDTSGHFERLLVSMCQGNRDENQSINHQMAQEDAQRLYQAGEGRLGTDESCFNMILATRSFPQLRATMEAYSRMANRDLLSSVSREFSGYVESGLKTILQCALNRPAFFAERLYYAMKGAGTDDSTLVRIVVTRSEIDLVQIKQMFAQMYQKTLGTMIAGDTSGDYRRLLLAIVGQ |  |  | up to 100 fold |
